In article PMC4474874, “Effect of JAK Inhibitors on Release of CXCL9, CXCL10 and CXCL11 from Human Airway Epithelial Cells” (PLoS ONE, 2015):

Legend:
[1] = system: BEAS-2B cells; test: IL-6 release from IFNγ + TNFα-stimulated BEAS-2B cells; format: cell-based, human
Protocol: (§1) In order to determine whether any of the inhibitory effects of the JAK inhibitors could be attributed to cell death, MTT assays were performed at the end of every experiment. […] In order to address this issue, the levels of IL-6 released from cells stimulated with IFNγ + TNFα were measured.

[2] = system: BEAS-2B cells; test: mRNA expression of CXCL9, CXCL10 and CXCL11 in BEAS-2B cells (Taqman RT-PCR); format: cell-based, human; conditions: BEAS-2B, 10^-6M, IFNγ or IFNγ + TNFα
Protocol: Total RNA was extracted from cells and reverse transcribed, as described previously. Gene expression was determined by Taqman real-time PCR on a 7500 Real Time PCR system (Applied Biosystems, Life Technologies Ltd, Paisley, UK) using PCR Master Mix Reagent and ‘assays on demand’ (Applied Biosystems). HPRT1 gene expression was used as the housekeeping gene and data presented as δδCT relative to baseline.
Gene expression of CXCL9 (panels a and b), CXCL10 (panels c and d) and CXCL11 (panels e and f) were quantified by Taqman RT-PCR. Data are presented as fold change form stimulus ± SEM; n = 3 where 1 indicates the level of mRNA induced by IFNγ or IFNγ + TNFα in the absence of inhibitors.

[3] = system: human primary airway epithelial cells; test: Release of CXCL9, CXCL10 and CXCL11 from human primary airway epithelial cells (ELISA); format: cell-based; conditions: human primary airway epithelial cells, IFNγ or IFNγ+TNFα
Protocol: (§2) BEAS-2B cells (catalogue number CRL-9609) were purchased directly from American Type Culture Collection (Rockville, MD). Keratinocyte serum-free medium (K-SFM), bovine pituitary extract (BPE), and recombinant human epidermal growth factor (EGF) were purchased from Invitrogen (Paisley, UK). BEAS-2B cells were cultured in K-SFM containing 50 μg/ml BPE and 5 ng/ml EGF at 37°C in a humidified atmosphere comprising 5% (v/v) CO2 in air. Cells were cultured as monolayers in growth factor-free media for 24 h prior to stimulation. Human primary airway epithelial cells were cultured as monolayers from bronchial brushings from both male and female subjects (Table 1) and cultured in LHC-9 media (Invitrogen, Paisley, UK) in collagen (1% w/v) coated flasks. Samples were obtained from non-smokers, smokers and patients with COPD. […] The subjects were matched for age and smokers and COPD patients for smoking history (Table 1). All subjects gave informed written consent and the study was approved by the NRES London-Chelsea Research Ethics committee, study number 09/H0801/85.
(§3) Cell-free supernatants were removed 20h post-stimulation and assayed for CXCL9, CXCL10 and CXCL11 using Duoset ELISA kits (R & D Systems Europe, Abingdon, UK) according to the manufacturer’s instructions. The detection limits of these assays are 62pg/ml, 31pg/ml, and 7.8 pg/ml respectively.
(§4) Data are presented as mean ± SEM of ‘n’ independent determinations. Concentration-response curves were analysed by least-squares, non-linear iterative regression with the ‘Graphpad Prism’ curve fitting program (GraphPad software, San Diego, USA) and IC50 values were subsequently interpolated from curves of best-fit. Statistical differences were determined using the Kruskal–Wallis test followed by Dunn's multiple comparison test or a Wilcoxon signed rank test as appropriate. Values of P<0.05 were considered significant.
Media was harvested and the concentrations of CXCL9 (panels a and d), CXCL10 (panels b and e) and CXCL11 (panels c and f) were measured by ELISA. Data are presented as mean ± SEM, n = 10–13.

[4] = system: BEAS-2B cells; test: Release of CXCL9, CXCL10 and CXCL11 from BEAS-2B cells (ELISA), inhibitors added 1h before stimulus; format: cell-based, human; conditions: BEAS-2B
Protocol: as §2, §3, §4
Media was harvested and the concentrations of CXCL9 (panels a and d), CXCL10 (panels b and e) and CXCL11 (panels c and f) were measured by ELISA. Data are presented as mean±SEM, n = 7–8.

[5] = system: human primary airway epithelial cells; test: IL-6 release from IFNγ + TNFα-stimulated human primary airway epithelial cells; format: cell-based; conditions: IFNγ + TNFα
Protocol: as §1

Structure (SMILES): C[C@@H]1C[C@H]2[C@@H]3CCC4=CC(=O)C=C[C@]4(C)[C@@]3(F)[C@@H](O)C[C@]2(C)[C@@]1(O)C(=O)CO [dexamethasone]
- suppression of IL-6 release [1]: 50–70%
- IC50 ([1]; Homo sapiens): 16 ± 8 nM
- effect on gene transcription of CXCL9, CXCL10 and CXCL11 [2]: no effect on gene transcription
- effect on CXCR3 chemokine release [3]: did not suppress
- effect on CXCL9 and CXCL11 release ([4]; IFNγ or IFNγ+TNFα): very limited effect
- maximal inhibitory effect on release of CXCL10 ([4]; IFNγ-stimulated): ~ 50%
- inhibitory effect on release of CXCL10 ([4]; stimulation with IFNγ and TNFα together): none
- IC50 ([5]; Homo sapiens, Epithelial cell): 11 ± 7 nM
- suppression of IL-6 release [5]: 50–70%
